We go through 5 compounds from patent publication EP0052909A1, “Derivative of alfa-mercaptopropionilglicine having therapeutical activity, process for its preparation and related pharmaceutical compositions” (Real S.a.s. di Alberto Reiner & C., priority 1980, dated 1982).

What is called LD50 is the dose at which mortality reaches 50%. A low value points to a more toxic substance. In general, mortality refers to the percentage killed. Lower therefore signals a weak lethal effect.

Where a name gives a salt, the structure may show the parent alone.

Data set [1] is described as follows: Solubility in water. Type of data set: physicochemical.
A short description of data set [2]: Acute toxicity by oral route in the rat. It is filed as in vivo. The settings on record: rat, in vivo, rat, evaluated ten days after administration. The procedure:
(§1) Sprague-Dawley albine rats having an average weight of 120 + 5 g and of both sexes were used.
(§2) For each compound 40 rats were treated. The test compound as a suspension in 5% arabic gum was administered through a gastric probe.
(§3) The results were evaluated ten days after the administration.

For data set [3], the system named is Sprague-Dawley albine rats. The data set is described as follows: Acute toxicity by oral route in the rat. Type of data set: in vivo. The settings on record: evaluated ten days after administration. The method, then: as §1, §2, §3
Data set [4] concerns rats of male sex, of the Sprague-Dawley strain. The data set is described as follows: Anti-inflammatory activity in the kaolin test. Type of data set: in vivo. The following applies: rat, 10% suspension of kaolin, diameter of the articulation. The procedure: (§4) The tests used for the evaluation of the anti-inflammatory activity were respectively that of the kaolin and that of the egg white.
a) Anti-inflammatory activity in the kaolin test. For each compound 16 rats of male sex, of the Sprague-Dawley strain and of 200-250 g of body weight, were used. The rats were divided into four groups each comprising four rats. All the animals were injected with a 10% suspension of kaolin. The first group was used as the control, whereas the other three groups were administered with doses respectively of 50,75 and 100 mg/Kg. The measurements of the diameters of the articulation were effected one hour after the kaolin injection and then every 24 hours.
The inoculation of kaolin caused an increase of the tibio-tarsal articulation which has been partially limited by the treatment with the test compound.

For data set [5], the system named is male rats, of the Sprague-Dawley strain. Kind of data set: Anti-inflammatory activity in the egg white test. Type of data set: in vivo, rat. The settings on record: two oral doses of 100 mg/Kg with a 30 minute interval, 0,1 ml of egg white in the rear paw, measured 3 and 4 hours later. The method, then:
as §4
For each compound 16 male rats, of the Sprague-Dawley strain and weighing 300 g, were used. The animals were divided- in four groups each comprising four rats. The first group served as a control, whereas the other three groups were orally administered, with a 30 minute interval, with two doses of 50,75 and 100 mg/Kg of the test compound.
The last administration was immediately followed by the inoculation of 0,1 ml of egg white in the rear paw of all the animals, including the controls. The measurements of the diameters of the articulations were effected 3 and 4 hours later.

Data set [6] relates to female rats. Kind of data set: Test for possible teratogenic action. It is filed as in vivo, rat. The following applies: 50 mg/Kg from the beginning up to the 19-20 day of gestation. The method, then:
The subject compound was also tested with respect to a possible teratogenic action, by administering to female rats a dose of 50 mg/Kg from the beginning up to the 19-20 day of gestation.

Setting [7] is: TREATMENT 900 (900 mg/Kg elsewhere in the source), oral by gastric probe.

With `CC(C)Cc1ccc(C(C)C(=O)SC(C)C(=O)NCC(=O)O)cc1` (stereo not shown) [calcium salt], the solubility in water entry in data set [1] was “insoluble”.
Same read-out and setting: next, `CC(C)Cc1ccc(C(C)C(=O)SC(C)C(=O)NCC(=O)O)cc1` (stereo not shown) [magnesium salt]: “insoluble”; `CC(C)Cc1ccc(C(C)C(=O)SC(C)C(=O)NCC(=O)O)cc1` (stereo not shown) [potassium salt]: “highly soluble in water”; `CC(C)Cc1ccc(C(C)C(=O)SC(C)C(=O)NCC(=O)O)cc1` (stereo not shown) [sodium salt]: “highly soluble in water”.
For `CC(C)Cc1ccc(C(C)C(=O)SC(C)C(=O)NCC(=O)O)cc1` (stereo not shown) [test compound], in data set [2] (po), the LD50 at 240 h is more than 900 mg/kg. In data set [2] (setting [7]), the mortality at 240 h is 0%. Moreover, the dead/living in data set [3] (TREATMENT 150 (dose unit not given), oral by gastric probe, suspension in 5% arabic gum) is 0/8; in data set [3] (TREATMENT 300, oral by gastric probe), 0/8; in data set [3] (TREATMENT 450, oral by gastric probe), 0/8; in data set [3] (TREATMENT 600, oral by gastric probe) it was 0/8; in data set [3] (setting [7]), 0/8. In addition, the “ANTI-INFLAMMATORY ACTIVITY %” value was determined as 10% in data set [4] (75 mg/kg), 26% in data set [4] (100 mg/kg) and 26% in data set [5]. The “reabsorption number and the foeti in the treated rats with respect to the controls” value in data set [6] is listed as “no significant difference”. The “weight of the foeti” value in data set [6] is on record as “did not revealed whatsoever anomaly”.
